{"source": "patent US8614063B2", "about": "“Methods for screening for compounds for treating cancer” (PTC Therapeutics, Inc., priority 2008, dated 2013)", "key": {"Bmi-1": {"tested_on": "Bmi-1", "assay": "Bmi-1 Sandwich ELISA (endogenous Bmi-1 protein in HT-1080 cells)", "assay_type": "cell-based, human", "conditions": "40-48 hours compound treatment", "method": "In another embodiment, the levels of endogenous Bmi-1 are determined by the Bmi-1 Sandwich ELISA. A Sandwich ELISA measures the amount of antigen, in this case Bmi-1, between two layers of antibodies (i.e. capture and detection antibody). The capture antibody is immobilized in the wells of an ELISA plate and when a cell lysate or other sample is added to the plate, the specific protein of interest (Bmi-1) is bound by this capture antibody. A second antibody, called the detecting antibody, is then added, which binds to the bound protein and helps increase the signal. […] Either monoclonal or polyclonal antibodies can be used as the capture and detection antibodies in Sandwich ELISA systems. Monoclonal antibodies recognize a single epitope that allows fine detection and quantification of […] differences in antigen. A polyclonal is often used as the capture antibody to pull down as much of the antigen as possible.\nHT-1080 cells were seeded at 5000 cells/well (50 μL) in 96-well tissue culture plates. After the cells become adherent (3-4 hours), 2× diluted stocks of compounds in 50 μL DMEM containing 1% DMSO (final DMSO concentration was 0.5%) were added and the plates were incubated at 37° C. under 5% CO2 for 40-48 hours\nThe plate was covered with a plate seal and allowed to stand overnight.\n1× Lysis Buffer (40 μL) was added to each well and the plate was shaken for 5-10 minutes on an orbital shaker to allow cell lysis, then Diluent (1% BSA in PBS in 0.5% NP40) (100 μL) was added to each well.\nAliquots can be kept at 4° C. and reused after first thaw, but only for 1-2 weeks. The Bmi-1 Recombinant Protein Standard contains a GST and thus will show up on western blots around 70 Kda.\nThe prepared ELISA plate was washed 3× with Wash Buffer (0.05% Tween-20 in PBS). The final wash was removed from the plate and the plate was blotted dry on paper towels. Blocking Buffer (300 μL) (1% BSA in PBS) was added per well. The plate was covered with a plate seal and incubated at room temperature for 1 hour. The blocked plate was washed 3× with Wash Buffer, the final wash was removed and the plate was blotted dry on paper towels. The previously prepared samples and standards were added (at 100 μL/well) and the plate was covered with a plate seal and incubated at 4° C. overnight.\nThe prepared ELISA plate was removed from 4° C., incubated at room temperature for 30 minutes, then washed and blotted dry as previously described for Day 3. […] The plate was covered with a plate seal and incubated for 1.5 hrs at room temperature.\nThe ELISA plate was washed and blotted dry as previously described.\nThe plate was incubated for 20-30 minutes at room temperature in the dark, then Stop Solution (2 M sulfuric acid in water) ([…]) was added per well. The plates were read at OD450 (experimental) and OD570 (reference)."}, "[1]": {"tested_on": "firefly luciferase (fLuc) reporter gene flanked by the 5′-UTR and 3′-UTR of Bmi-1 mRNA", "assay": "Luciferase reporter gene assay in stable 293H cells", "assay_type": "cell-based", "conditions": "Homo sapiens, fLuc flanked by Bmi-1 5′-UTR and 3′-UTR", "from_the_text": "A high-level expression vector, pcDNA™3.1/Hygro (Invitrogen Corp., Carlsbad, Calif.) was used for preparing the constructs comprising the luciferase gene flanked by any of the Bmi-1 5′-UTR and 3′-UTR, or the Bmi-1 5′-UTR or the Bmi-1 3′-UTR of Bmi-1 mRNA. In a pcDNA™3.1/Hygro vector, the UTRs and restriction sites associated with cloning, expressing, or cloning and expressing a gene of interest or a reporter gene were removed or replaced. For each construct containing 5′-UTR sequences, the 5′-UTR sequences with the first 21 nucleotides of Bmi-1 ORF were cloned into the vector using the appropriate restriction sites so that the first 21 nucleotides were in frame with the luciferase reporter gene.\nThe cells were passaged every 4 days at 1:10 dilution. Cultures were kept in a 37° C. and 5% CO2 incubator. The cells were scaled-up over a three day period before performing the assay. Two confluent T175 flasks were split into twenty T175 flasks (1:10 dilution). Cells were harvested from each confluent flask by removing all of the media and adding 4 mL of warmed trypsin to dislodge the cells. After the cells were dislodged, 16 mL of selective media was added for a final volume of 20 mL. The cells were expanded by adding 2 mL of the harvested cells into ten new T175 flasks plus 25 mL of selective media. The twenty new flasks are placed into the 37° C., 5% CO2 incubator. On the day the assay was performed, the media was removed from the flasks and 3 mL of warmed trypsin was added to dislodge the cells. After the cells were dislodged, 10 mL of nonselective media was to the flask. This was repeated for all twenty flasks and combined into one flask. 100 μL of the above cell culture plus 100 μL of Trypan Blue stain was counted on a hemocytometer.\nLuciferase activity was immediately assayed using a ViewLux Imaging system (Perkin Elmer)."}, "[2]": {"assay": "CellTiter-Glo cytotoxicity assay, U937", "assay_type": "cell-based", "conditions": "human, U937 cells (monocyte cell line); U937, relatively sensitive cell line", "from_the_text": "To evaluate cytotoxicity of the compounds in the 293H cell lines, the CellTiter-Glo® assay (Promega) is utilized. CellTiter-Glo® determines the number of viable cells in culture based on quantification of the ATP present, which signals the presence of metabolically active cells. A reduction in cellular ATP is indicative of a cytotoxic or cytostatic effect. Doxorubicin, a known cytotoxic compound, is used to address the sensitivity of the tested cell line. For relatively sensitive cell lines, such as U937 (a human monocyte cell line), the CC50 of doxorubicin ranges from 4 to 10 nM."}, "[3]": {"assay": "CellTiter-Glo cytotoxicity assay, Huh7", "assay_type": "cell-based", "conditions": "human, Huh7 cells (hepatocellular carcinoma cell line); Huh7, intermediate level of sensitivity"}}}
{"compound": "COc1cc(Br)c(Nc2nc(-c3c(C)nc4ncccn34)cs2)c(Br)c1", "note": "[Compound 1, N-(2,6-dibromo-4-methoxyphenyl)-4-(2-methylimidazo[1,2-a]pyrimidin-3-yl)thiazol-2-amine]", "values": [{"measurement": "EC50", "setting": "Bmi-1", "result": 410, "unit": "nM"}, {"measurement": "EC50", "setting": "[1]", "result": 530, "unit": "nM"}]}
{"compound": "COc1cc(Cl)c(Nc2nc(-c3c(C)nc4ncccn34)cs2)c(Cl)c1", "note": "[Compound 2, N-(2,6-dichloro-4-methoxyphenyl)-4-(2-methylimidazo[1,2-a]pyrimidin-3-yl)thiazol-2-amine]", "values": [{"measurement": "EC50", "setting": "Bmi-1", "result": 660, "unit": "nM"}, {"measurement": "EC50", "setting": "[1]", "result": 910, "unit": "nM"}]}
{"compound": "COc1cc(F)c(Nc2nc(-c3c(C)nc4ncccn34)cs2)c(F)c1", "note": "[Compound 3, N-(2,6-difluoro-4-methoxyphenyl)-4-(2-methylimidazo[1,2-a]pyrimidin-3-yl)thiazol-2-amine]", "values": [{"measurement": "EC50", "setting": "Bmi-1", "result": "> 3000", "unit": "nM"}, {"measurement": "EC50", "setting": "[1]", "result": 17600, "unit": "nM"}]}
{"compound": "Cc1cc(Br)c(Nc2nc(-c3c(C)nc4ncccn34)cs2)c(Br)c1", "note": "[Compound 4, N-(2,6-dibromo-4-methylphenyl)-4-(2-methylimidazo[1,2-a]pyrimidin-3-yl)thiazol-2-amine]", "values": [{"measurement": "EC50", "setting": "Bmi-1", "result": 320, "unit": "nM"}, {"measurement": "EC50", "setting": "[1]", "result": 540, "unit": "nM"}]}
{"compound": "Cc1nc2ncccn2c1-c1csc(Nc2c(Br)cc(Br)cc2Br)n1", "note": "[Compound 5, 4-(2-methylimidazo[1,2-a]pyrimidin-3-yl)-N-(2,4,6-tribromophenyl)thiazol-2-amine]", "values": [{"measurement": "EC50", "setting": "Bmi-1", "result": 710, "unit": "nM"}, {"measurement": "EC50", "setting": "[1]", "result": 800, "unit": "nM"}]}
{"compound": "COCCOc1cc(Br)c(Nc2nc(-c3c(C)nc4ncccn34)cs2)c(Br)c1", "note": "[Compound 6, N-(2,6-dibromo-4-(2-methoxyethoxy)phenyl)-4-(2-methylimidazo[1,2-a]pyrimidin-3-yl)thiazol-2-amine]", "values": [{"measurement": "EC50", "setting": "Bmi-1", "result": 1700, "unit": "nM"}, {"measurement": "EC50", "setting": "[1]", "result": 2600, "unit": "nM"}]}
{"compound": "COc1cc(Br)c(Nc2nc(-c3cnc4ccc(Cl)cn34)cs2)c(Br)c1", "note": "[Compound 7, 4-(6-chloroimidazo[1,2-a]pyridine-3-yl)-N-(2,6-dibromo-4-methoxyphenyl)thiazol-2-amine]", "values": [{"measurement": "EC50", "setting": "Bmi-1", "result": 360, "unit": "nM"}, {"measurement": "EC50", "setting": "[1]", "result": 750, "unit": "nM"}]}
{"compound": "Cc1cc(Br)c(Nc2nc(-c3cnc4ccc(Cl)cn34)cs2)c(Br)c1", "note": "[Compound 8, 4-(6-chloroimidazo[1,2-a]pyridine-3-yl)-N-(2,6-dibromo-4-methylphenyl)thiazol-2-amine]", "values": [{"measurement": "EC50", "setting": "Bmi-1", "result": 390, "unit": "nM"}, {"measurement": "EC50", "setting": "[1]", "result": 3800, "unit": "nM"}]}
{"compound": "COc1cc(Cl)c(Nc2nc(-c3cnc4ccc(Cl)cn34)cs2)c(Cl)c1", "note": "[Compound 9, 4-(6-chloroimidazo[1,2-a]pyridine-3-yl)-N-(2,6-dichloro-4-methoxyphenyl)thiazol-2-amine]", "values": [{"measurement": "EC50", "setting": "Bmi-1", "result": 1090, "unit": "nM"}, {"measurement": "EC50", "setting": "[1]", "result": 940, "unit": "nM"}]}
{"compound": "COc1cccc2c1C(=O)c1c(O)c3c(c(O)c1C2=O)C[C@@](O)(C(=O)CO)C[C@@H]3O[C@H]1C[C@H](N)[C@H](O)[C@H](C)O1", "note": "[doxorubicin, Doxorubicin]", "values": [{"measurement": "CC50", "setting": "[2]", "result": "4 to 10", "unit": "nM"}, {"measurement": "CC50", "setting": "[3]", "result": "70 to 300", "unit": "nM"}]}
